# Literature values, collected in patent publication US20050260613A1 (priority 2003, published 2005).
# System: AD patients
# Settings: presence of the ApoE4 allele
structure (smiles),measurement,value
Nc1c2c(nc3ccccc13)CCCC2 [tacrine],response to treatment in presence of the ApoE4 polymorphism,reduced response
